Results on one molecule are retold here after US20150030706A1, “USE OF ESSENTIAL OILS, SUPERCRITICAL EXTRACTS AND AQUEOUS RESIDUES GENERATED DURING A PROCESS FOR OBTAINING ORGANIC EXTRACTS FROM THE ARTEMISIA ABSINTHIUM L. PLANT” (CONSEJO SUPERIOR DE INVESTIGACIONES CIENTIFICAS (CSIC), priority 2012, published 2015).

This experiment has as its system Meloidogyne javanica. Nature of the experiment: Nematicide activity against infective juveniles (J2). The experiment is classed as in vivo. Here is the method: The assays were carried out according to the methodology described for Meloidogyne sp (Hernández-Carlos et al. 2011, Sosa et al. 2012) using the biological stage of infected juvenile (J2) Meloidogyne javanica in the assays. The activity of each product was quantified at different concentrations, shown in Table 5 and in at least four copies, each bio-assay was repeated at least three times and the nematostatic/nematicide activity was determined from the percentage of infected juvenile plants immobilised/which died.

`C=C/C(C)=C\CC(O)C(C)(C)O` (stereo not shown) [(Z)-2,6-dimethylocta-5,7-diene-2,3-diol]: the “M. javanica % J2 immobilised Average” value by setting is: (Concentration 0.02 μg/μl) 4.2%; (Concentration 0.1 μg/μl) 19.7%; (Concentration 0.25 μg/μl) 43.9%; (Concentration 0.5 μg/μl) 100%.
